Here are results for 15 compounds from patent US10399940B2, “Substituted pyrrolidines and methods of use” (AbbVie S.à.r.l., priority 2016, dated 2019).

The target in the experiment is T1, F508delCFTR (Homo sapiens, UniProt P13569, DEL508-508).
T1 construct: expressed in transfected cells; host or cells: CFBE41o- (human lung derived epithelial cell line), doxycycline-inducible expression
Put plainly: Cell Surface Expression-Horse Radish Peroxidase (CSE-HRP) assay. The class given is cell-based. Particulars: CFBE41o-F508delCFTR-HRP cells; for Maximum % activity (with co-corrector): with co-corrector (2 μM); for Maximum % activity (with co-corrector) / Maximum % activity (without co-corrector): normalized to on-plate positive control, highest concentration 20 μM. A digest of the protocol:
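Surface F508delCFTR-HRP was read by luminol luminescence after 18–24 h compound exposure at 33 °C, without or with 2 μM co-corrector. Doses were eight 3-fold steps from 20 μM, in doxycycline-induced (0.5 μg/mL, 72 h) CFBE41o- cells. % activity was scaled to the on-plate 2 μM positive control minus DMSO; EC50 came from a variable-slope sigmoid fit.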

Setting [1] is: test compound without co-corrector, 18-24 hours at 33° C., read-out: EC50 (without co-corrector).
Setting [2] is: with co-corrector (2 μM of 3-[(2R,4R)-4-({[1-(2,2-difluoro-1,3-benzodioxol-5-yl)cyclopropyl]carbonyl}amino)-7-methoxy-3,4-dihydro-2H-chromen-2-yl]benzoic acid), read-out: EC50 (with co-corrector).

Like-named read-outs stand apart in the source and are kept apart here.

T1 sequence (P13569 with tags, fused parts or gaps DEL508-508): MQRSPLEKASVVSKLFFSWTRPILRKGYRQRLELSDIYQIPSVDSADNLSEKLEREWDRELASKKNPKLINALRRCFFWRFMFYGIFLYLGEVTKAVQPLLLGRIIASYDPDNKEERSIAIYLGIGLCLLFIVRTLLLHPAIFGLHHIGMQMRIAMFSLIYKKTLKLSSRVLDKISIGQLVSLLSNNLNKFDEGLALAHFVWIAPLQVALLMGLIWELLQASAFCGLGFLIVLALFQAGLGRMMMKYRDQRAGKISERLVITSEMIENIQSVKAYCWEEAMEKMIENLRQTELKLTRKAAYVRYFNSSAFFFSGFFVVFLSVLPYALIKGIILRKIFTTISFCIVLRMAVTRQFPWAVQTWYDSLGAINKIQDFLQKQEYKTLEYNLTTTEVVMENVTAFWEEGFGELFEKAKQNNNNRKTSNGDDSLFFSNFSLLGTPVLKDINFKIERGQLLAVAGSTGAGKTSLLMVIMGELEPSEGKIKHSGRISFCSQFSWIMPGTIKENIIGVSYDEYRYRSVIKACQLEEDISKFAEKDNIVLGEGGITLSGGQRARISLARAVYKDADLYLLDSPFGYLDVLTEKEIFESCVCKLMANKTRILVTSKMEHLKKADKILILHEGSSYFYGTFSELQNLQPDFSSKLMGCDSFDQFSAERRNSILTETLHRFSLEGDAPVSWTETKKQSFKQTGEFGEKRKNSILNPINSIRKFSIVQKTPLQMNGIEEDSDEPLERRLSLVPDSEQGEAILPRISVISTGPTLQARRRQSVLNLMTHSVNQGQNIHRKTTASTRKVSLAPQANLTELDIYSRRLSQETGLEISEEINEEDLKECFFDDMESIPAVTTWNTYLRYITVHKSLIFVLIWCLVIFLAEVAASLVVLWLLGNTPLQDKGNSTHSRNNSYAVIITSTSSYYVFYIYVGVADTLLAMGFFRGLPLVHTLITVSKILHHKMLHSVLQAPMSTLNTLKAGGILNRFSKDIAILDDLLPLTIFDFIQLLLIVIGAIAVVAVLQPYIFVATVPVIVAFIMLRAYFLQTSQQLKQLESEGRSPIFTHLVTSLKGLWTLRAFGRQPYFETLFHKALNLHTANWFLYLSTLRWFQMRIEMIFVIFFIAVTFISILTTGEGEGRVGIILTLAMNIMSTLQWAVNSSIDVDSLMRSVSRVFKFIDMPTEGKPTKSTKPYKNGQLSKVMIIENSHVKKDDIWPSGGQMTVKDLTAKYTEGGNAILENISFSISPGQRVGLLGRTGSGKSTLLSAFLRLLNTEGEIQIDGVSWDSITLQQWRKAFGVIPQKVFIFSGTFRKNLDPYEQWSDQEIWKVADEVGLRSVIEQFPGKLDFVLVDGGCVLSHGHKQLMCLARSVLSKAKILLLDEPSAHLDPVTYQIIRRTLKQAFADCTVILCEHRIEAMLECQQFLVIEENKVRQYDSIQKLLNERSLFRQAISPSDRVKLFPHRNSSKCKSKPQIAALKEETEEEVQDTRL

The term EC50 denotes the concentration giving half of the maximal effect. In the case of `COc1ncc(C(F)(F)F)cc1CO[C@H]1[C@H](C(C)(C)C)[C@@H](C(=O)O)N(C(=O)C2CCC2)[C@H]1c1cccnc1OC(C)C` [Example 160, (2S,3R,4S,5S)-3-tert-butyl-1-(cyclobutanecarbonyl)-4-{[2-methoxy-5-(trifluoromethyl)pyridin-3-yl]methoxy}-5-{2-[(propan-2-yl)oxy]pyridin-3-yl}pyrrolidine-2-carboxylic acid], the “Maximum % activity (with co-corrector)” value is “++ (≥150 and <350)”; the “Maximum % activity (without co-corrector)” value is “+ (<100)”. Further, under setting [1], the concentration for a half-maximal effect (EC50) lay in the range of 1 to 10 µM. For the same compound, the concentration for a half-maximal effect (EC50) under setting [2] was 1 to 10 µM.
Turning to `COc1ncc(C2CCC2)cc1CO[C@H]1[C@H](C(C)(C)C)[C@@H](C(=O)O)N(C(=O)C2CCC2)[C@H]1c1cccnc1OC(C)C` [Example 161, (2S,3R,4S,5S)-3-tert-butyl-1-(cyclobutanecarbonyl)-4-[(5-cyclobutyl-2-methoxypyridin-3-yl)methoxy]-5-{2-[(propan-2-yl)oxy]pyridin-3-yl}pyrrolidine-2-carboxylic acid], the “Maximum % activity (with co-corrector)” value is “+++ (≥350)” and the “Maximum % activity (without co-corrector)” value is recorded as “+ (<100)”. The EC50 under setting [1] was in the range of 1 to 10 µM. Further, the EC50 under setting [2] lay in the range of 1 to 10 µM.
For the compound `COc1ccc(C(C)(C)C)cc1CO[C@H]1[C@H](C(C)(C)C)[C@@H](C(=O)O)N(C(=O)[C@@H]2CCCO2)[C@H]1c1ccccc1Br` [Example 162, (2S,3R,4S,5S)-5-(2-bromophenyl)-3-tert-butyl-4-[(5-tert-butyl-2-methoxyphenyl)methoxy]-1-[(2S)-oxolane-2-carbonyl]pyrrolidine-2-carboxylic acid], the “Maximum % activity (with co-corrector)” value is on record as “+++ (≥350)” and the “Maximum % activity (without co-corrector)” value was “+++ (≥200)”. In addition, the EC50 under setting [1] was in the range of 1 to 10 µM. Also, the EC50 under setting [2] is under 1 µM.
Take `COc1ncc(C(F)(F)F)cc1CO[C@@H]1[C@H](C(C)(C)C)[C@@H](C(=O)O)N(C(=O)C2CCCC2)[C@H]1c1cccnc1OC(C)C` [Example 163, (2S,3R,4R,5S)-3-tert-butyl-1-(cyclopentanecarbonyl)-4-{[2-methoxy-5-(trifluoromethyl)pyridin-3-yl]methoxy}-5-{2-[(propan-2-yl)oxy]pyridin-3-yl}pyrrolidine-2-carboxylic acid]: the “Maximum % activity (with co-corrector)” value was “+ (<150)” and the “Maximum % activity (without co-corrector)” value was “+ (<100)”. In addition, the EC50 under setting [1] is over 10 µM. Under setting [2], the concentration for a half-maximal effect (EC50) was over 10 µM.
For `COc1ncc(C(F)(F)F)cc1CO[C@@H]1[C@H](C(C)(C)C)[C@@H](C(=O)O)N(C(=O)C2CCCCC2)[C@H]1c1cccnc1OC(C)C` [Example 164, (2S,3R,4R,5S)-3-tert-butyl-1-(cyclohexanecarbonyl)-4-{[2-methoxy-5-(trifluoromethyl)pyridin-3-yl]methoxy}-5-{2-[(propan-2-yl)oxy]pyridin-3-yl}pyrrolidine-2-carboxylic acid], the “Maximum % activity (with co-corrector)” value was “+ (<150)” and the “Maximum % activity (without co-corrector)” value is “+ (<100)”. Besides, the EC50 under setting [1] is over 10 µM. Under setting [2], the concentration for a half-maximal effect (EC50) is over 10 µM.
With `COc1ncc(C2CCC2)cc1CO[C@H]1[C@H](C(C)(C)C)[C@@H](C(=O)O)N(C(=O)[C@@H]2CCCO2)[C@H]1c1ccccc1C(F)F` [Example 165, (2S,3R,4S,5S)-3-tert-butyl-4-[(5-cyclobutyl-2-methoxypyridin-3-yl)methoxy]-5-[2-(difluoromethyl)phenyl]-1-[(2S)-oxolane-2-carbonyl]pyrrolidine-2-carboxylic acid], the “Maximum % activity (with co-corrector)” value is “+++ (≥350)”; the “Maximum % activity (without co-corrector)” value is “++ (≥100 and <200)”. Besides, the EC50 under setting [1] was in the range of 1 to 10 µM. The EC50 under setting [2] was in the range of 1 to 10 µM.
Take `COc1ncc(C2CCC2)cc1CO[C@@H]1[C@H](C(C)(C)C)[C@@H](C(=O)O)N(C(=O)OC(C)C)[C@H]1c1ccccc1Br` [Example 166, (2S,3R,4R,5S)-5-(2-bromophenyl)-3-tert-butyl-4-[(5-cyclobutyl-2-methoxypyridin-3-yl)methoxy]-1-{[(propan-2-yl)oxy]carbonyl}pyrrolidine-2-carboxylic acid]: the “Maximum % activity (with co-corrector)” value is reported as “+++ (≥350)” and the “Maximum % activity (without co-corrector)” value was “+ (<100)”. The EC50 under setting [1] was in the range of 1 to 10 µM. Also, the EC50 under setting [2] lay in the range of 1 to 10 µM.
With `COc1ncc(C(F)(F)F)cc1CO[C@H]1[C@H](C(C)(C)C)[C@@H](C(=O)O)N(C(=O)OC(C)C)[C@H]1c1c(F)cccc1F` [Example 167, (2S,3R,4S,5S)-3-tert-butyl-5-(2,6-difluorophenyl)-4-{[2-methoxy-5-(trifluoromethyl)pyridin-3-yl]methoxy}-1-{[(propan-2-yl)oxy]carbonyl}pyrrolidine-2-carboxylic acid], the “Maximum % activity (with co-corrector)” value was “++ (≥150 and <350)”; the “Maximum % activity (without co-corrector)” value is given as “+ (<100)”. For the same compound, under setting [1], the half-maximal effective concentration (EC50) lay within 1 to 10 µM. Also, the EC50 under setting [2] was in the range of 1 to 10 µM.
With `COc1ncc(C2CCC2)cc1CO[C@H]1[C@H](C(C)(C)C)[C@@H](C(=O)O)N(C(=O)OC(C)C)[C@H]1c1ccccc1C1CC1` [Example 168, (2S,3R,4S,5S)-3-tert-butyl-4-[(5-cyclobutyl-2-methoxypyridin-3-yl)methoxy]-5-(2-cyclopropylphenyl)-1-{[(propan-2-yl)oxy]carbonyl}pyrrolidine-2-carboxylic acid], the “Maximum % activity (with co-corrector)” value was “+++ (≥350)”; the “Maximum % activity (without co-corrector)” value is “++ (≥100 and <200)”. Further, the EC50 under setting [1] was in the range of 1 to 10 µM. Further, under setting [2], the EC50 was 1 to 10 µM.
In the case of `COc1ncc(C2CCC2)cc1CO[C@H]1[C@H](C(C)(C)C)[C@@H](C(=O)O)N(C(=O)C2CCCCC2)[C@H]1c1cccnc1OC(C)C` [Example 169, (2S,3R,4S,5S)-3-tert-butyl-4-[(5-cyclobutyl-2-methoxypyridin-3-yl)methoxy]-1-(cyclohexanecarbonyl)-5-{2-[(propan-2-yl)oxy]pyridin-3-yl}pyrrolidine-2-carboxylic acid], the “Maximum % activity (with co-corrector)” value is “+++ (≥350)” and the “Maximum % activity (without co-corrector)” value was “+++ (≥200)”. In addition, the EC50 under setting [1] lay in the range of 1 to 10 µM. Also, the concentration giving a half-maximal response (EC50) under setting [2] lay within 1 to 10 µM.
In the case of `COc1ncc(C2CCC2)cc1CO[C@H]1[C@H](C(C)(C)C)[C@@H](C(=O)O)N(C(=O)[C@@H]2CCCCO2)[C@H]1c1ccccc1C` [Example 170, (2S,3R,4S,5S)-3-tert-butyl-4-[(5-cyclobutyl-2-methoxypyridin-3-yl)methoxy]-5-(2-methylphenyl)-1-[(2S)-oxane-2-carbonyl]pyrrolidine-2-carboxylic acid], the “Maximum % activity (with co-corrector)” value was “+++ (≥350)” and the “Maximum % activity (without co-corrector)” value was “+++ (≥200)”. Also, under setting [1], the half-maximal effective concentration (EC50) is 1 to 10 µM. The EC50 under setting [2] is under 1 µM.
In the case of `COc1ncc(C2CCC2)cc1CO[C@H]1[C@H](C(C)(C)C)[C@@H](C(=O)O)N(C(=O)[C@@H]2CCCCO2)[C@H]1c1ccccc1C1CC1` [Example 171, (2S,3R,4S,5S)-3-tert-butyl-4-[(5-cyclobutyl-2-methoxypyridin-3-yl)methoxy]-5-(2-cyclopropylphenyl)-1-[(2S)-oxane-2-carbonyl]pyrrolidine-2-carboxylic acid], the “Maximum % activity (with co-corrector)” value is reported as “+++ (≥350)” and the “Maximum % activity (without co-corrector)” value is reported as “+++ (≥200)”. The EC50 under setting [1] was in the range of 1 to 10 µM. For the same compound, under setting [2], the EC50 fell in the range of 1 to 10 µM.
With `COc1ccc(C(C)(C)C)cc1CO[C@H]1[C@H](C(C)(C)C)[C@@H](C(=O)O)N(C(=O)[C@@H]2CCCO2)[C@H]1c1ccccc1C1CC1` [Example 172, (2S,3R,4S,5S)-3-tert-butyl-4-[(5-tert-butyl-2-methoxyphenyl)methoxy]-5-(2-cyclopropylphenyl)-1-[(2S)-oxolane-2-carbonyl]pyrrolidine-2-carboxylic acid], the “Maximum % activity (with co-corrector)” value is given as “+++ (≥350)” and the “Maximum % activity (without co-corrector)” value is recorded as “+++ (≥200)”. Under setting [1], the EC50 was in the range of 1 to 10 µM. Further, under setting [2], the EC50 lay in the range of 1 to 10 µM.
`COc1ncc(Br)cc1CO[C@H]1[C@H](C(C)(C)C)[C@@H](C(=O)O)N(C(=O)[C@@H]2CCCO2)[C@H]1c1ccccc1C1CC1` [Example 173, (2S,3R,4S,5S)-4-[(5-bromo-2-methoxypyridin-3-yl)methoxy]-3-tert-butyl-5-(2-cyclopropylphenyl)-1-[(2S)-oxolane-2-carbonyl]pyrrolidine-2-carboxylic acid]: the “Maximum % activity (with co-corrector)” value was “+++ (≥350)” and the “Maximum % activity (without co-corrector)” value is “+++ (≥200)”. Moreover, the EC50 under setting [1] lay within 1 to 10 µM. Also, the 50% effective concentration (EC50) under setting [2] lay in the range of 1 to 10 µM.
Regarding `COc1ccc(C(F)(F)F)cc1CO[C@H]1[C@H](C(C)(C)C)[C@@H](C(=O)O)N(C(=O)[C@@H]2CCCCO2)[C@H]1c1ccccc1C` [Example 174, (2S,3R,4S,5S)-3-tert-butyl-4-{[2-methoxy-5-(trifluoromethyl)phenyl]methoxy}-5-(2-methylphenyl)-1-[(2S)-oxane-2-carbonyl]pyrrolidine-2-carboxylic acid], the “Maximum % activity (with co-corrector)” value was “+++ (≥350)” and the “Maximum % activity (without co-corrector)” value is “+++ (≥200)”. Also, the EC50 under setting [1] is under 1 µM. Moreover, the EC50 under setting [2] was under 1 µM.
